According to US3959272A, “Aminoalkyl esters of 2-anilino-nicotinic acids” (Societe Anonyme dite: Hexachime, priority 1972, dated 1976):

Columns and labels:
[1] = Anti-inflammatory activity: oedema provoked by carragenin in the rat; type: in vivo; conditions: po, read-out: percentage inhibition of oedema
Protocol: The method used was as follows.
The anti-inflammatory activity was measured on oedema provoked by carragenin in the rat. Groups of six male rats each weighing 120 to 130 g received the compound under test orally in suspension in "tween 80", half the dose being given 2 hours before and the other half 1/2 hour before the subcutaneous plantar injection of 0.05 ml of a 1 % carragenin solution. The volume of the injected paw was measured by plethysmography at regular intervals. Table 1 below gives the percentage inhibition of the oedema with reference to untreated controls.

[2] = Chronic toxicity in beagle dogs, 3 months; type: in vivo, beagle dog; conditions: 150 mg/kg each day for 3 months
Protocol: Six beagle dogs (3 male and 3 female) received each day for 3 months 150 mg/kg of the product of Example 1.

[3] = dog, in vivo
Protocol: The product of Example 1 was perfused in the dog at a dosage of 50 mg/minute by the saphena vein. Cardiac arrest was produced by a dose of 344 mg/kg.

[4] = Laparotomy test; type: in vivo, rat; conditions: as the hydrochloride; for ED50: Rattus norvegicus, ip, intraperitoneal
Protocol: Rats weighing 110 to 130 g each received the product of Example 1 (as the hydrochloride) by intraperitoneal injection. 10 or 30 Minutes after the treatment, the animals are examined to see:
1. If they allow themselves to remain lying on their backs;
3. if they tolerate an incision into the skin; and
4. if they tolerate an incision into the muscle. If an animal submits without reaction it is counted as zero, and if it reacts it is counted as one. The total score is calculated for each dosage. The following table gives the percentage protection and the number of sleeping rats.

[5] = Hypnotic activity in rats or mice (loss of righting reflex); type: in vivo; conditions: for % of sleeping animals: mice
Protocol: The compounds under test were administered to rats or mice intraperitoneally. The loss of the righting reflex was noted and the duration of sleep measured objectively with reference to the loss of the righting reflex. The compounds under test were also administered by slow perfusion to dogs. The moment when the dog fell asleep and the duration of sleep was noted.

[6] = Analgesic activity: Randall and Selitto's test (beer yeast paw, pain threshold); type: in vivo, rat
Protocol: This activity was measured by Siegmund's test in mice and Randall and Selitto's test in the rat. Groups of ten male rats each weight 120 to 140 g received by subcutaneous plantar injection 0.05 ml of a 5% aqueous suspension of beer yeast. 2 Hours after this treatment they received the compound under test orally and 1 hour after administration of this compound the paw which had been injected and the contralateral paw were subjected to increasing pressure. The appearance of the pain threshold was noted.

[7] = Cardiovascular parameters: atropinised and bivagotomised dogs; type: in vivo, dog
Protocol: Unsorted dogs of either sex weighing 8 to 17 kg and anaesthetised by chloralose in solution in polyethylene glycol 300 (0.12 g/kg) were respirated artificially using a Bird pump (Mark 7). The carotid arterial blood pressure was measured with the aid of a Statham P 23 dB device. The left ventricular pressure is measured with the same device connected by a supple catheter introduced by the femoral artery and pushed into the left ventricle. The cardiac rhythm is measured from the signals of the carotid pressure. The myocardial contractile force is measured using a strain gauge (Apelab) attached to the right ventricle. All the parameters are recorded on a Beckman polygraph. Two series of dogs are used to test the cardiovascular activity: 5 dogs atropinised (1 mg/kg intravenously) and bivagotomised; and a second series of 4 intact dogs. The product of Example 1 was injected through the saphena vein and the duration of the injection was 2 minutes.
The following Table VIII gives the variations of the recorded parameters and their significance according to the t test (* p< 0.05; ** p<0.01).

[8] = Overall result of the pharmacological tests; type: in vivo; conditions: according to the results obtained
Description: The new compounds show these properties in the tests usually used to determine them.

[9] = 5 mg/kg intravenously, 5 dogs, * p<0.05
[10] = 8 mg/kg intravenously, 5 dogs, ** p<0.01

## Cc1cccc(Nc2ncccc2C(=O)OCCN2CCOCC2)c1C [Example 1, β-Morpholino ethyl nixylate]
[1]; 16 mg/kg orally
  inhibition in vivo at 16 mg/kg: 16%
[1]; 32 mg/kg orally
  inhibition in vivo at 32 mg/kg: 20%
[1]; 64 mg/kg orally
  inhibition in vivo at 64 mg/kg: 34%
[1]; 128 mg/kg orally
  inhibition in vivo at 128 mg/kg: 45%
[1]; 256 mg/kg orally
  inhibition in vivo at 256 mg/kg: 61%
[2]
  biochemical and hematological characteristics: No modification attributable to the treatment was observed
  histological examination of the organs: normal
  mortality: No mortality was observed
  weights of the dogs: remained normal
[3]
  dose producing cardiac arrest: 344 mg/kg
[4]; 10 min, 10 min after treatment
  ED50: 44 mg/kg
[4]; 0.5 h, 30 min after treatment
  ED50: 100 mg/kg
[4]; 16 mg/kg intraperitoneally, 10 min after treatment, 12 rats
  Percentage protection: 6%
[4]; 16 mg/kg intraperitoneally, 10 min after treatment, of 12 rats
  Number of sleeping rats: 0
[4]; 16 mg/kg intraperitoneally, 30 min after treatment, 6 rats
  Percentage protection: 0%
[4]; 16 mg/kg intraperitoneally, 30 min after treatment, of 6 rats
  Number of sleeping rats: 0
[4]; 32 mg/kg intraperitoneally, 10 min after treatment, 12 rats
  Percentage protection: 34%
[4]; 32 mg/kg intraperitoneally, 10 min after treatment, of 12 rats
  Number of sleeping rats: 0
[4]; 32 mg/kg intraperitoneally, 30 min after treatment, 6 rats
  Percentage protection: 0%
[4]; 32 mg/kg intraperitoneally, 30 min after treatment, of 6 rats
  Number of sleeping rats: 0
[4]; 64 mg/kg intraperitoneally, 10 min after treatment, 24 rats
  Percentage protection: 62%
[4]; 64 mg/kg intraperitoneally, 10 min after treatment, of 24 rats
  Number of sleeping rats: 0
[4]; 64 mg/kg intraperitoneally, 30 min after treatment, 24 rats
  Percentage protection: 34%
[4]; 64 mg/kg intraperitoneally, 30 min after treatment, of 24 rats
  Number of sleeping rats: 0
[4]; 128 mg/kg intraperitoneally, 10 min after treatment, 12 rats
  Percentage protection: 96%
[4]; 128 mg/kg intraperitoneally, 10 min after treatment, of 12 rats
  Number of sleeping rats: 0
[4]; 128 mg/kg intraperitoneally, 30 min after treatment, 12 rats
  Percentage protection: 62%
[4]; 128 mg/kg intraperitoneally, 30 min after treatment, of 12 rats
  Number of sleeping rats: 8
[4]; 256 mg/kg intraperitoneally, 30 min after treatment, 6 rats
  Percentage protection: 92%
[4]; 256 mg/kg intraperitoneally, 30 min after treatment, of 6 rats
  Number of sleeping rats: 6
[5]; 50 mg/kg intraperitoneally
  % of sleeping animals: 0%
[5]; 75 mg/kg intraperitoneally
  % of sleeping animals: 46%
[5]; 100 mg/kg intraperitoneally
  % of sleeping animals: 57%
[5]; 125 mg/kg intraperitoneally
  % of sleeping animals: 84%
[5]; 200 mg/kg intraperitoneally
  % of sleeping animals: 92%
[5]; 250 mg/kg intraperitoneally
  % of sleeping animals: 100%
[5]; only this product of those tested
  sleep caused: caused sleep
[6]; with yeast, 8 mg/kg orally
  percentage increase of pain threshold: 15%
[6]; with yeast, 16 mg/kg orally
  percentage increase of pain threshold: 68%
[6]; with yeast, 32 mg/kg orally
  percentage increase of pain threshold: 90%
[6]; with yeast, 64 mg/kg orally
  percentage increase of pain threshold: 83%
[6]; with yeast, 128 mg/kg orally
  percentage increase of pain threshold: 120%
[6]; with yeast, 256 mg/kg orally
  percentage increase of pain threshold: 161%
[6]; without yeast, 8 mg/kg orally
  percentage increase of pain threshold: 37%
[6]; without yeast, 16 mg/kg orally
  percentage increase of pain threshold: 29%
[6]; without yeast, 32 mg/kg orally
  percentage increase of pain threshold: 51%
[6]; without yeast, 64 mg/kg orally
  percentage increase of pain threshold: 72%
[6]; without yeast, 128 mg/kg orally
  percentage increase of pain threshold: 101%
[6]; without yeast, 256 mg/kg orally
  percentage increase of pain threshold: 126%
[7]; 1 mg/kg intravenously, 5 dogs
  Average blood pressure: -4±2%
  Diastolic blood pressure: -4±2%
  Systolic blood pressure: -3,3±3%
[7]; 2 mg/kg intravenously, 2 dogs
  Average blood pressure: -12%
  Diastolic blood pressure: -12%
  Duration of reduced blood pressure: 30
  Systolic blood pressure: -12%
[7]; 5 mg/kg intravenously, 5 dogs
  Change in cardiac rhythm: -8 to -20 beats per minute
[7]; [9]
  Diastolic blood pressure: -15±4%
  Systolic blood pressure: -13±3%
[7]; 5 mg/kg intravenously, 5 dogs, ** p<0.01
  Average blood pressure: -14±3%
[7]; 8 mg/kg intravenously, 5 dogs
  Change in cardiac rhythm: -8 to -20 beats per minute
[7]; [10]
  Average blood pressure: -26±5%
  Diastolic blood pressure: -27±5%
  Systolic blood pressure: -24±5%
[7]; 16 mg/kg intravenously, 2 dogs
  Average blood pressure: -31%
  Change in cardiac rhythm: -18 to -24 beats per minute
  Diastolic blood pressure: -32%
  Duration of reduced blood pressure: > 30
  Systolic blood pressure: -30%
[7]; doses of 4 mg/kg and above, during the injection or one to two minutes afterwards
  blood pressure: reduction in blood pressure
[7]; during the injection or one to two minutes afterwards, 2 dogs only
  contractile force: slight increase in the contractile force
[7]; during the injection or one to two minutes afterwards, according to the dose
  increase in the cardiac rhythm: 2-16 beats per minute
[7]; measured in two dogs only
  left ventricular blood pressure: followed the variations of the arterial blood pressure
[7]; two minutes after the injection
  hypotension: hypotension proportional to the dose injected
[8]
  activity relative to the other compounds: the most active compound
